{"source": "paper PMC5187537", "about": "“Antioxidant Activity of Oat Proteins Derived Peptides in Stressed Hepatic HepG2 Cells” (Antioxidants, 2016)", "type_in_all_cases": "cell-based, Human", "key": {"[1]": {"test_system": "glutathione (GSH) of HepG2 cells", "assay": "Cellular glutathione, enzymatic recycling method", "conditions": "100 µM peptide 24 h, then AAPH 24 h, p < 0.05", "description": "(§1) Cells were seeded at 1 × 10^6 cells/plate in 60 mm tissue culture plates and allowed to grow for 24 h. In each plate, cells were washed twice with 4 mL of PBS (pH 7.2), and treated with 4 mL peptide samples (P1, P2, P6, P7) dissolved in culture media at 50 or 100 µM for 24 h. After removal of peptide solutions, cells were washed twice with 4 mL of PBS/plate and treated with 4 mL of […] dissolved in culture media and allowed to incubate for 24 h. Cells in each culture plate were harvested by incubation (5 min) with 0.5 mL of 0.25% trypsin, addition of 1 mL of culture media and centrifugation at 1000× g for 5 min. Cell pellets were washed with ice cold PBS (500 µL each) until no pink color was observed, re-suspended in ice cold PBS (300 µL) for the superoxide dismutase (SOD) assay, 500 µL for glutathione peroxidase (GPx) and catalase (CAT) assays. For total glutathione assay, 300 µL of 5% ice cold sulfosalicylic acid bubbled with 100% nitrogen was used for cell lysis. Cells were lysed by sonication on ice for 1 min using a probe-type sonicator (Vibra-Cell, Sonics and Materials Inc., Newtown, CT, USA) pulsing at 15 s on and 10 s off cycles. Following centrifugation of cell lysate at 13,000× g (4 °C), pellets containing cell debris were discarded, while supernatants were used for determination of glutathione content. Protein contents were determined using a modified Lowry assay.\nThe assay was based on the enzymatic recycling method adjusted for 96-well plates. All solutions were prepared in sodium phosphate buffer (125 mM, pH 7.5) that contained 6.3 mM EDTA (ethylenediaminetetraacetic acid). In summary, 60 µL of 0.35 mM NADPH and 10 µL of 6 mM DTNB were added to wells, this was followed by the addition of 20 µL cell lysate or glutathione (GSH) standard. To initiate the reaction, 10 µL of glutathione reductase (5 IU/mL) was added and the rate of reaction between GSH from cell lysate and DTNB was measured at 412 nm. Total glutathione of cell lysates was calculated based on a standard curve of glutathione."}, "[2]": {"test_system": "superoxide dismutase (SOD)", "assay": "Superoxide dismutase activity of lysates of AAPH-stressed cells", "conditions": "50 and 100 µM peptide 24 h, then AAPH 24 h", "description": "as §1\nThe SOD activity was measured based on the rate of reduction of nitroblue tetrazolium (2.24 mM) to formazan by xanthine oxidase (13.2 U/mL) at 560 nm. Eight concentrations of each cell extract ([…] protein/mL) or SOD standard (2–500 ng/mL) were used to obtain inhibition curves. Specifically, 20 µL of cell sample, or buffer (blank) was mixed with 160 µL of assay solution, and 20 µL of xanthine oxidase was added to initiate the reaction. The reduction of nitroblue tetrazolium to blue formazan by O2^−• generated in situ was followed at 560 nm. SOD activities were calculated and expressed as units per milligram of protein."}, "[3]": {"test_system": "HepG2 cells", "conditions": "50 or 100 µM peptide 24 h, then 20 mM AAPH 24 h, MTT", "description": "Human hepatocellular carcinoma (HepG2) cells were purchased from the American Type Culture Collection (ATCC; Manassas, VA, USA). They were cultured at 37 °C in a humidified incubator with 5% CO2 and 95% air. Dulbecco’s Minimal Essential Media (DMEM) supplemented with 10% (v/v) Fetal Bovine Serum was used for the maintenance of cells. […] The MTT (3-(4,5-dimethylthiazol-2-yl)-2,5-diphenyltetrazolium bromide) assay, as described in an earlier research, was used for cytotoxicity and cytoprotective tests. […] Following another 24 h incubation, cells were washed twice with 200 µL of PBS. Ten µL of MTT solution (5 mg/mL in PBS) and 100 µL of media were added to each well. After 1 h, MTT solution was removed, and 50 µL DMSO were added. Absorbances were recorded at 570 nm with 630 nm background subtraction using a BioTek Epoch™ microplate reader (Fisher Scientific, Nepean, ON, Canada). Untreated cells were used as negative control (NC) and cells treated with only AAPH were used as positive control (PC)."}}, "note": "Peptide text beside a SMILES is read from it.", "data": [{"smiles": "CC[C@H](C)[C@H](NC(=O)[C@H](Cc1ccc(O)cc1)NC(=O)[C@@H](NC(=O)[C@H](CC(C)C)NC(=O)CN)C(C)C)C(=O)N[C@@H](CC(C)C)C(=O)O", "note": "[P2] (H-GLVYIL-OH; N-terminus and C-terminus assumed)", "values": [{"measurement": "GSH concentration relative to normal cells", "setting": "[1]", "result": "further increased"}, {"measurement": "Effect on SOD activity compared to AAPH treated cells only (PC)", "setting": "[2]", "result": "increase SOD to a level equivalent to that of normal cells"}]}, {"smiles": "CC[C@H](C)[C@H](NC(=O)[C@H](Cc1ccc(O)cc1)NC(=O)[C@@H](NC(=O)[C@H](CC(C)C)NC(=O)CNC(=O)[C@@H]1CCCN1C(=O)[C@H](C)NC(=O)[C@H](CC(N)=O)NC(=O)[C@H](Cc1c[nH]cn1)NC(=O)[C@@H](N)Cc1ccc(O)cc1)C(C)C)C(=O)N[C@@H](CC(C)C)C(=O)O", "note": "[P6] (H-YHNAPGLVYIL-OH; N-terminus and C-terminus assumed)", "values": [{"measurement": "GSH concentration relative to normal cells", "setting": "[1]", "result": "further increased"}, {"measurement": "Cytoprotective effect against AAPH-induced damage", "setting": "[3]", "result": "cytoprotective"}, {"measurement": "Effect on SOD activity compared to AAPH treated cells only (PC)", "setting": "[2]", "result": "did not affect the activity"}]}]}
